{"source": "patent US4130645A", "about": "(priority 1978, dated 1978)", "key": {"[1]": {"experiment": "Thermal decomposition point (Differential Thermal Analyzer)", "type": "physicochemical", "conditions": "20° C./min, onset method; listed as Parent Compound", "procedure": "By the procedure of Examples 2 and 5 the following novel salts of 2,3,5,6-tetrachloro-N-nitroaniline are prepared as listed in Table II below. The melting points (uncorrected) of said salts are determined on a Thomas Hoover Capillary Melting Point Apparatus; while the thermal decomposition points of said salts are determined on a Dupont 900 Differential Thermal Analyzer. […] Decompositions are recorded by an exothermic response and the temperatures given in Table II below are assessed by the \"onset method\"."}, "[2]": {"tested_on": "Puccinia recondita var. tritici", "experiment": "Protectant control of leaf rust of wheat", "type": "in vivo", "procedure": "(§1) Individual pots of approximately 20 to 25 wheat (Triticum vulgare, cv. Cheyenne) plants each, grown under greenhouse conditions, approximately 7 to 8 days old and 10.2 to 12.7 cm. tall are used as test plants, a minimum of three such pots per unit of test.\n(§2) The required amount of test compound is dissolved in 10 ml. of a stock solution consisting of 1995 ml. acetone, 4 ml. sorbitan trioleate and 1 ml. polyoxyethylene (20) sorbitan monooleate and diluted to a volume of 100 ml. by addition of 90 ml. deionized water.\n(§3) Test plants, three pots per unit of test, are mounted on a compound turntable and sprayed to incipient run-off with the test solution applied at 2.81 kg/cm^2 pressure for 60 seconds using a solid conte T-Jet 8801E spray nozzle. By this spray procedure the delivery rate is equivalent to approximately 467.7 l/ha.\n(§4) Treated plants are allowed to air dry for 5 to 6 hours and then inoculated by uniformly dusting with urediospores of leaf rust of wheat (Puccinia recondita var. tritici) at a rate of approximately 2 × 10^5 urediospores per replicate, using urediospores directly from diseased plants. Inoculated plants are immediately placed in an incubation chamber maintained at 21° C. and 95% + RH. After 24 hours plants are removed to the greenhouse and maintained under greenhouse conditions of 21° to 29.4° C. and 50 to 75% RH for 5 to 8 days until signs of orange pustules visible to the naked eye appear on the inoculated but otherwise untreated controls.\nEffectiveness of the compound, as applied, is expressed as Percent Control calculated as: [formula]\nAverage number of pustules on plants of any given test unit is determined by randomly dividing all plants in each of the three replicates (one pot per replicate) into quadrants, counting the actual number of pustules on all plants within a quadrant in each of the three replicates, multiplying by four and averaging the total number of pustules thus obtained as the average number of pustules per replicate."}, "[3]": {"tested_on": "wheat", "experiment": "Plant injury to wheat in leaf rust test", "type": "in vivo, Triticum vulgare, cv. Cheyenne", "procedure": "as §1, §2, §3, §4"}, "[4]": {"tested_on": "Pyricularia oryzae Carvara", "conditions": "in vivo"}, "[5]": {"tested_on": "Podosphaera leucotricha (E&E) Salm.", "experiment": "whole plant or invertebrate", "type": "in vivo", "conditions": "in vivo"}, "[6]": {"tested_on": "Venturia inaequalis (Cke.) Wint.", "experiment": "whole plant or invertebrate", "type": "in vivo", "conditions": "in vivo"}, "[7]": {"tested_on": "crops", "conditions": "in vivo; cited from earlier work"}, "[8]": {"tested_on": "groundsel and chickweed", "conditions": "in vivo; cited from earlier work"}, "[9]": {"tested_on": "rice", "conditions": "1000 ppm"}}}
{"molecule": "O=[N+]([O-])Nc1c(Cl)c(Cl)cc(Cl)c1Cl", "note": "[2,3,5,6-Tetrachloro-N-nitroaniline, 2,3,5,6-tetrachloro-N-nitroaniline]", "values": [{"measurement": "Thermal Decomposition Point", "setting": "[1]", "value": 150, "unit": "°C"}, {"measurement": "% Control (Ave)", "setting": "[2]; 50 ppm", "value": 35, "unit": "%"}, {"measurement": "No. of Infection Loci/Replicate", "setting": "[2]; 50 ppm, Rep. 1", "value": 186}, {"measurement": "No. of Infection Loci/Replicate", "setting": "[2]; 50 ppm, Rep. 2", "value": 173}, {"measurement": "No. of Infection Loci/Replicate", "setting": "[2]; 50 ppm, Rep. 3", "value": 199}, {"measurement": "% Control (Ave)", "setting": "[2]; 100 ppm", "value": 58, "unit": "%"}, {"measurement": "No. of Infection Loci/Replicate", "setting": "[2]; 100 ppm, Rep. 1", "value": 124}, {"measurement": "No. of Infection Loci/Replicate", "setting": "[2]; 100 ppm, Rep. 2", "value": 119}, {"measurement": "No. of Infection Loci/Replicate", "setting": "[2]; 100 ppm, Rep. 3", "value": 116}, {"measurement": "% Control (Ave)", "setting": "[2]; 200 ppm", "value": 69, "unit": "%"}, {"measurement": "No. of Infection Loci/Replicate", "setting": "[2]; 200 ppm, Rep. 1", "value": 81}, {"measurement": "No. of Infection Loci/Replicate", "setting": "[2]; 200 ppm, Rep. 2", "value": 96}, {"measurement": "No. of Infection Loci/Replicate", "setting": "[2]; 200 ppm, Rep. 3", "value": 86}, {"measurement": "Plant Injury (Ave)", "setting": "[3]; 50 ppm", "value": 0}, {"measurement": "Plant Injury (Ave)", "setting": "[3]; 100 ppm", "value": 0}, {"measurement": "Plant Injury (Ave)", "setting": "[3]; 200 ppm", "value": 0}]}
{"molecule": "Cc1cccc(N[N+](=O)[O-])c1C", "note": "[2,3-dimethylphenylnitramine]", "values": [{"measurement": "activity against the rice blast pathogen", "setting": "[4]", "value": "considerable activity"}]}
{"molecule": "O=[N+]([O-])Nc1c(Br)cc(C(F)(F)F)cc1Br", "note": "[2,6-dibromo-4-trifluoromethylphenylnitramine]", "values": [{"measurement": "activity against apple powdery mildew", "setting": "[5]", "value": "active"}, {"measurement": "activity against apple scab", "setting": "[6]", "value": "active"}]}
{"molecule": "O=C(O)C1(O)c2ccccc2-c2ccc(Cl)cc21", "note": "(stereo not shown) [2-chloro-9-fluorenol-9-carboxylic acid]", "values": [{"measurement": "selectivity", "setting": "[7]", "value": "very little selectivity"}, {"measurement": "susceptibility of most crops examined", "setting": "[7]", "value": "susceptible"}, {"measurement": "weed control", "setting": "[8]", "value": "weed control is achieved"}]}
{"molecule": "O=[N+]([O-])Nc1ccc(C(F)(F)F)cc1", "note": "[4-trifluoromethylphenylnitramine]", "values": [{"measurement": "activity against the rice blast pathogen", "setting": "[4]", "value": "considerable activity"}]}
{"molecule": "CC(=O)N(c1c(Cl)c(Cl)cc(Cl)c1Cl)[N+](=O)[O-]", "note": "[N-acetyl derivative of 2,3,5,6-tetrachlorophenylnitramine]", "values": [{"measurement": "activity against the rice blast pathogen", "setting": "[4]", "value": "considerable activity"}, {"measurement": "activity against apple powdery mildew", "setting": "[5]", "value": "active"}]}
{"molecule": "Cc1cccc(N[N+](=O)[O-])c1C", "note": "[drawing 55]", "values": [{"measurement": "Rice Blast Percent Disease Control", "setting": "[4]", "value": 81, "unit": "%"}]}
{"molecule": "CC(=O)N(c1c(Cl)c(Cl)cc(Cl)c1Cl)[N+](=O)[O-]", "note": "[drawing 57]", "values": [{"measurement": "Rice Blast Percent Disease Control", "setting": "[4]", "value": 100, "unit": "%"}]}
{"molecule": "O=[N+]([O-])Nc1c(Cl)c(Cl)cc(Cl)c1Cl", "note": "[drawing 58]", "values": [{"measurement": "Rice Blast Percent Disease Control", "setting": "[4]", "value": 83, "unit": "%"}, {"measurement": "phytotoxicity", "setting": "[9]", "value": "M/Sv"}]}
{"molecule": "O=[N+]([O-])Nc1c(Cl)c(Cl)cc(Cl)c1Cl", "note": "[drawing 59]", "values": [{"measurement": "Rice Blast Percent Disease Control", "setting": "[4]", "value": 83, "unit": "%"}, {"measurement": "phytotoxicity", "setting": "[9]", "value": "M/Sv"}]}
{"molecule": "O=[N+]([O-])Nc1c(Cl)c(Cl)cc(Cl)c1Cl", "note": "[drawing 60]", "values": [{"measurement": "Rice Blast Percent Disease Control", "setting": "[4]", "value": 83, "unit": "%"}]}
{"molecule": "O=[N+]([O-])Nc1c(Cl)c(Cl)cc(Cl)c1Cl", "note": "[drawing 61]", "values": [{"measurement": "Rice Blast Percent Disease Control", "setting": "[4]", "value": 83, "unit": "%"}]}
{"molecule": "O=[N+]([O-])Nc1c(Cl)c(Cl)cc(Cl)c1Cl", "note": "[drawing 62]", "values": [{"measurement": "Rice Blast Percent Disease Control", "setting": "[4]", "value": 69, "unit": "%"}]}
